≈ marks a conversion by molar mass, not a printed value.
Key:
[1] = target: T1, Human immunodeficiency virus type 1 reverse transcriptase (Human immunodeficiency virus 1, UniProt Q72547); assay: Inhibition of HIV-1 reverse transcriptase
[2] = system: Human immunodeficiency virus 1; assay: Antiviral activity against HIV-1 harboring Y188L mutant infected in human MT4 cells assessed as protection against virus-induced cytopathic effect incubated for 5 days by MTT assay; format: functional, organism-based; details: Human immunodeficiency virus 1, MT4, 120 h
[3] = system: Human immunodeficiency virus 1; assay: Antiviral activity against HIV-1 harboring F227L/V106A double mutant infected in human MT4 cells assessed as protection against virus-induced cytopathic effect incubated for 5 days by MTT assay; format: functional, organism-based; details: Human immunodeficiency virus 1, MT4, 120 h
[4] = system: Human immunodeficiency virus 1; assay: Antiviral activity against HIV-1 harboring RES056 mutant infected in human MT4 cells assessed as protection against virus-induced cytopathic effect incubated for 5 days by MTT assay; format: functional, organism-based; details: Human immunodeficiency virus 1, MT4, 120 h
[5] = Cytotoxicity against human MT4 cells assessed as reduction in cell viability incubated for 5 days by MTT assay; format: toxicity, cell-based; details: MT4 cells, time 5 day
[6] = Selectivity index, ratio of CC50 for cytotoxicity against human MT4 cells assessed as reduction in cell viability to EC50 for antiviral activity against wild type HIV-1 IIIB infected in human MT4 cells assessed as protection against virus-induced cytopathic effect; format: toxicity, cell-based; details: MT4 cells, read-out: Ratio CC50/EC50
[7] = system: Human immunodeficiency virus 1; assay: Antiviral activity against HIV-1 harboring L100I mutant infected in human MT4 cells assessed as protection against virus-induced cytopathic effect incubated for 5 days by MTT assay; format: functional, organism-based; details: Human immunodeficiency virus 1, MT4, 120 h
[8] = system: Human immunodeficiency virus 1; assay: Antiviral activity against HIV-1 harboring K103N mutant infected in human MT4 cells assessed as protection against virus-induced cytopathic effect incubated for 5 days by MTT assay; format: functional, organism-based; details: Human immunodeficiency virus 1, MT4, 120 h
[9] = system: Human immunodeficiency virus 1; assay: Antiviral activity against HIV-1 harboring Y181C mutant infected in human MT4 cells assessed as protection against virus-induced cytopathic effect incubated for 5 days by MTT assay; format: functional, organism-based; details: Human immunodeficiency virus 1, MT4, 120 h
[10] = system: Human immunodeficiency virus 1; assay: Antiviral activity against HIV-1 harboring E138K mutant infected in human MT4 cells assessed as protection against virus-induced cytopathic effect incubated for 5 days by MTT assay; format: functional, organism-based; details: Human immunodeficiency virus 1, MT4, 120 h
[11] = target: T1, Human immunodeficiency virus type 1 reverse transcriptase; assay: Inhibition of wildtype recombinant HIV-1 Reverse transcriptase incubated for 40 mins by spectrofluorometric analysis
Cytochrome P450 1A2 = target: T2, Cytochrome P450 1A2 (Homo sapiens, UniProt P05177); assay: Inhibition of CYP1A2 in human liver microsome preincubated with compound for 10 minutes followed NADPH addition and measured after 15 mins by LC-MS/MS analysis; format: ADME, microsomes
T2 sequence (P05177 whole entry): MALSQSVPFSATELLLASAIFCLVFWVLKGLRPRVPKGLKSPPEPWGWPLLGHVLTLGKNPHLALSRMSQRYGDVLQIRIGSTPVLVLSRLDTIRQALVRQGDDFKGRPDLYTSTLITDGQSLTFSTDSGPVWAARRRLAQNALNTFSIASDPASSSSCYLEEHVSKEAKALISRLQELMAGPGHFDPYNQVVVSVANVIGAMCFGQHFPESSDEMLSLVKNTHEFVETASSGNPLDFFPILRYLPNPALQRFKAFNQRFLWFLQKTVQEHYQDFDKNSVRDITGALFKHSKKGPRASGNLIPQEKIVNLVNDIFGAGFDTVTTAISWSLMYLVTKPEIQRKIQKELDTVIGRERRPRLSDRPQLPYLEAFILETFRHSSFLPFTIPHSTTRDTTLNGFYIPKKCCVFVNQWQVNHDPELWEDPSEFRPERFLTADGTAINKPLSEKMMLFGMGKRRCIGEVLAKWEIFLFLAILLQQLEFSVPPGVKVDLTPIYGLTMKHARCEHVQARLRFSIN

Cytochrome P450 2C19 = Cytochrome P450 2C19 (Homo sapiens, UniProt P33261); assay: Inhibition of CYP2C19 in human liver microsome preincubated with compound for 10 minutes followed NADPH addition and measured after 15 mins by LC-MS/MS analysis; format: ADME, microsomes
Chain of Cytochrome P450 2C19 (P33261 whole entry): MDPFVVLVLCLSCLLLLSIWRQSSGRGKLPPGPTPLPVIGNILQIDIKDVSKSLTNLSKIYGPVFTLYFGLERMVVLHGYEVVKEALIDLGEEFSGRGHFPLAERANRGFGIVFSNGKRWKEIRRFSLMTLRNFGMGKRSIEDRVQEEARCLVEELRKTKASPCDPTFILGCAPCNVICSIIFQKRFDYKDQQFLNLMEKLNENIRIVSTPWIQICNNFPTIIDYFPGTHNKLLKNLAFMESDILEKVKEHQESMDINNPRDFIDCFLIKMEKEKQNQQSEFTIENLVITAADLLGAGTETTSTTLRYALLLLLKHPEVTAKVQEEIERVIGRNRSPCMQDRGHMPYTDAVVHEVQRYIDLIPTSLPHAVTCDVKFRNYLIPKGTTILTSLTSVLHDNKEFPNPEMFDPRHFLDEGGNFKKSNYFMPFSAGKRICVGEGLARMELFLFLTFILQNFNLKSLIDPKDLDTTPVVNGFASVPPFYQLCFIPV

Cytochrome P450 2C9 = Cytochrome P450 2C9 (Homo sapiens, UniProt P11712); assay: Inhibition of CYP2C9 in human liver microsome preincubated with compound for 10 minutes followed NADPH addition and measured after 15 mins by LC-MS/MS analysis; format: ADME, microsomes
Chain of Cytochrome P450 2C9 (P11712 whole entry): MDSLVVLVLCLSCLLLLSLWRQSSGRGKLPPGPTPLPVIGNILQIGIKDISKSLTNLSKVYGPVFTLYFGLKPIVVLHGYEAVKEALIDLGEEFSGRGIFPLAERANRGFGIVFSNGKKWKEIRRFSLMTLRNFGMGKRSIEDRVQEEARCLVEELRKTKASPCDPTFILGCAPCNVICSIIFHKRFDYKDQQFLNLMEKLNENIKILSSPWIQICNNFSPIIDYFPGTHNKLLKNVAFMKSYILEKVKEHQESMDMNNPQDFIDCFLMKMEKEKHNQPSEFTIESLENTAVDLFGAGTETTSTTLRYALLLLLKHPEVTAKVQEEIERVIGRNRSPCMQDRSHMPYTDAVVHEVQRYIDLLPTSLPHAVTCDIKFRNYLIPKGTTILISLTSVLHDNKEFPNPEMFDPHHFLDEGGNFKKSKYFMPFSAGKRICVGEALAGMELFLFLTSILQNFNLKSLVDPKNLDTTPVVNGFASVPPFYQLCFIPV

Cytochrome P450 2D6 = Cytochrome P450 2D6 (Homo sapiens, UniProt P10635); assay: Inhibition of CYP2D6 in human liver microsome preincubated with compound for 10 minutes followed NADPH addition and measured after 15 mins by LC-MS/MS analysis; format: ADME, microsomes
Chain of Cytochrome P450 2D6 (P10635 whole entry): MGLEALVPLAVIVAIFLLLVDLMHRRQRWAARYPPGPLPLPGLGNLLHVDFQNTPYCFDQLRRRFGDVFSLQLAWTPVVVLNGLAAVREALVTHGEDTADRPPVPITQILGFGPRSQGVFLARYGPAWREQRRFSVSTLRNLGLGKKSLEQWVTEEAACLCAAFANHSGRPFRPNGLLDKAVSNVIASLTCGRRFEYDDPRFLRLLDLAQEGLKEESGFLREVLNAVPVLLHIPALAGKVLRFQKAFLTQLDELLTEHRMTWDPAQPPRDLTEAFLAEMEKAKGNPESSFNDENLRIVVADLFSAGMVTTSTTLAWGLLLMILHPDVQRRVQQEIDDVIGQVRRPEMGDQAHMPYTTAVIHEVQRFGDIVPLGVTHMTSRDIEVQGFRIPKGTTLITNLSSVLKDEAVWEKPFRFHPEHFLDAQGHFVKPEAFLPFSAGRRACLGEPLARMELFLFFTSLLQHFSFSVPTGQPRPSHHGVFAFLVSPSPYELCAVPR

Cytochrome P450 3A4 [12] = target: T3, Cytochrome P450 3A4 (Homo sapiens, UniProt P08684); assay: Inhibition of CYP3A4 in human liver microsome using midazolam as substrate preincubated with compound for 10 minutes followed NADPH addition and measured after 15 mins by LC-MS/MS analysis; format: ADME, microsomes
T3 sequence (P08684 whole entry): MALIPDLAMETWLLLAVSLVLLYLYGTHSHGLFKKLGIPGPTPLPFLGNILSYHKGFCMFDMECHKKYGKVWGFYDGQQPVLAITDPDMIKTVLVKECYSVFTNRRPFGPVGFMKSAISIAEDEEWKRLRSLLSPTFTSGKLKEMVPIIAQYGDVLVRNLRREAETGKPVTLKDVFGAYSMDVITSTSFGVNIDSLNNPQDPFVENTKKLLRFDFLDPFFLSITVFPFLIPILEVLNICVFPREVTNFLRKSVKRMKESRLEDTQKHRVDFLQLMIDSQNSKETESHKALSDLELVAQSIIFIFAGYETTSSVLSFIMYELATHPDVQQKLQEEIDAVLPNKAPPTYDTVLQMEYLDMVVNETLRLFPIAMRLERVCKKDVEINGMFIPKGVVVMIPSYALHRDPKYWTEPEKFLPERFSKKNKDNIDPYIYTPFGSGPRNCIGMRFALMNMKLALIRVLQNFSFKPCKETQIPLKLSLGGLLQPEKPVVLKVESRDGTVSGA

Cytochrome P450 3A4 [13] = target: T3, Cytochrome P450 3A4; assay: Inhibition of CYP3A4 in human liver microsome using testosterone as substrate preincubated with compound for 10 minutes followed NADPH addition and measured after 15 mins by LC-MS/MS analysis; format: ADME, microsomes
[14] = target: Voltage-gated inwardly rectifying potassium channel KCNH2 (Homo sapiens, UniProt Q12809); assay: Inhibition of hERG potassium channel stably expressed in CHO cells at -80 mV holding potential by whole-cell patch-clamp analysis; format: toxicity, cell-based
Chain of Voltage-gated inwardly rectifying potassium channel KCNH2 (Q12809 whole entry): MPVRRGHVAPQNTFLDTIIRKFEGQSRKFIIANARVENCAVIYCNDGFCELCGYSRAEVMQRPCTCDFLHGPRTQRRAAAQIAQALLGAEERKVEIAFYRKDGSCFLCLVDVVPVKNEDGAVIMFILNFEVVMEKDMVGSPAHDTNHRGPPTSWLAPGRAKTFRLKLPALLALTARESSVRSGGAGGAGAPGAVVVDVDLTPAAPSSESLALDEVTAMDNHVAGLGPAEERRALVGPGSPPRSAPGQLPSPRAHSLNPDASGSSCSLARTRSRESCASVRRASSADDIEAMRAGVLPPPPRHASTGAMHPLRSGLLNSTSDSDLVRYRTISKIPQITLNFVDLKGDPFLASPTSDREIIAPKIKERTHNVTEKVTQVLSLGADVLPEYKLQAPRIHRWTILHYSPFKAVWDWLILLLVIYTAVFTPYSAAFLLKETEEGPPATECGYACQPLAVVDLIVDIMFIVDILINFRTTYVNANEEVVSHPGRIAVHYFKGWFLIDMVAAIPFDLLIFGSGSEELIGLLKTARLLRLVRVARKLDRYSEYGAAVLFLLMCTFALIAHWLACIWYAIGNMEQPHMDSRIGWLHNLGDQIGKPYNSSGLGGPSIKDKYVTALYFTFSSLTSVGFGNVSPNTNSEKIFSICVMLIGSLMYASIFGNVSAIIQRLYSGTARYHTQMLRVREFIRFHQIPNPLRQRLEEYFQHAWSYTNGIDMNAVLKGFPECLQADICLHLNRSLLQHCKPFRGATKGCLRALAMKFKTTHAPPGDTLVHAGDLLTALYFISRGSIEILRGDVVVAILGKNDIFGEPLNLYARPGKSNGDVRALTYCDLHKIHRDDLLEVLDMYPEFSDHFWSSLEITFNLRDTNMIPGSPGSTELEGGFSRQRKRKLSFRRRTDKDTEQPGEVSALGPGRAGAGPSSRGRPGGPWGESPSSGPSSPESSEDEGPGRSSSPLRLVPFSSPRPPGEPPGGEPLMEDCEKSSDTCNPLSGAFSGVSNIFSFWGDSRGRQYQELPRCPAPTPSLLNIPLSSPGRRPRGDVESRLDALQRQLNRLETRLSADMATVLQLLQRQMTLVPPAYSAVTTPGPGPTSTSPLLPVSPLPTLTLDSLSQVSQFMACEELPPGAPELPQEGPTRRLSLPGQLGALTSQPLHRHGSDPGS

[15] = Solubility of compound in phosphate buffer at pH 2 incubated for 24 hrs by HPLC analysis; format: physicochemical
[16] = Solubility of compound in phosphate buffer at pH 7 incubated for 24 hrs by HPLC analysis; format: physicochemical
[17] = Solubility of compound in phosphate buffer at pH 7.4 incubated for 24 hrs by HPLC analysis; format: physicochemical
[18] = Solubility of compound incubated for 24 hrs by HPLC analysis; format: physicochemical
[19] = Acute toxicity in SPF ICR mouse at 2 mg/kg, IG measured for 2 weeks; format: organism-based; details: in vivo, po, 336 h
[20] = Acute toxicity in SPF ICR mouse assessed as mortality at 2 mg/kg, IG measured for 2 weeks; format: organism-based; details: in vivo, po, 336 h
[21] = Acute toxicity in SPF ICR mouse assessed as change in body weight at 2 mg/kg, IG measured for 2 weeks; format: organism-based; details: in vivo, po, 336 h
[22] = Acute toxicity in SPF ICR mouse assessed as abnormal behavior at 2 mg/kg, IG measured for 2 weeks; format: organism-based; details: in vivo, po, 336 h
[23] = Acute toxicity in SPF ICR mouse assessed as distress at 2 mg/kg, IG measured for 2 weeks; format: organism-based; details: in vivo, po, 336 h
[24] = Acute toxicity in SPF ICR mouse assessed as pathological change in heart at 2 mg/kg, IG measured on day 14; format: organism-based; details: in vivo, po, 336 h, time 14 day
[25] = Acute toxicity in SPF ICR mouse assessed as pathological change in liver at 2 mg/kg, IG measured on day 14; format: organism-based; details: in vivo, po, 336 h, time 14 day
[26] = Acute toxicity in SPF ICR mouse assessed as pathological change in spleen at 2 mg/kg, IG measured on day 14; format: organism-based; details: in vivo, po, 336 h, time 14 day
[27] = Acute toxicity in SPF ICR mouse assessed as pathological change in lung at 2 mg/kg, IG measured on day 14; format: organism-based; details: in vivo, po, 336 h, time 14 day
[28] = Acute toxicity in SPF ICR mouse assessed as pathological change in kidney at 2 mg/kg, IG measured on day 14; format: organism-based; details: in vivo, po, 336 h, time 14 day
[29] = Acute toxicity in SPF ICR mouse assessed as pathological change in brain at 2 mg/kg, IG measured on day 14; format: organism-based; details: in vivo, po, 336 h, time 14 day
[30] = Acute toxicity in SPF ICR mouse assessed as heart damage at 2 mg/kg, IG measured on day 14; format: organism-based; details: in vivo, po, 336 h, time 14 day
[31] = Acute toxicity in SPF ICR mouse assessed as liver damage at 2 mg/kg, IG measured on day 14; format: organism-based; details: in vivo, po, 336 h, time 14 day
[32] = Acute toxicity in SPF ICR mouse assessed as spleen damage at 2 mg/kg, IG measured on day 14; format: organism-based; details: in vivo, po, 336 h, time 14 day
[33] = Acute toxicity in SPF ICR mouse assessed as lung damage at 2 mg/kg, IG measured on day 14; format: organism-based; details: in vivo, po, 336 h, time 14 day
[34] = Acute toxicity in SPF ICR mouse assessed as kidney damage at 2 mg/kg, IG measured on day 14; format: organism-based; details: in vivo, po, 336 h, time 14 day
[35] = Acute toxicity in SPF ICR mouse assessed as brain damage at 2 mg/kg, IG measured on day 14; format: organism-based; details: in vivo, po, 336 h, time 14 day

Cc1cc(-c2ccc(C#N)cc2)cc(C)c1Oc1nc(NC2CCN(Cc3ccc(S(N)(=O)=O)cc3)CC2)ncc1CO
EC50 [1]: 3 nM
EC50 [2]: 23 nM
EC50 [3]: 15 nM
EC50 [4]: 45 nM
CC50 at 120 h [5]: 18200 nM
selectivity ratio [6]: 6540
EC50 [7]: 9 nM
EC50 [8]: 9 nM
EC50 [9]: 10 nM
EC50 [10]: 8 nM
IC50 [11]: 293 nM
IC50 (Cytochrome P450 1A2): 50000 nM
IC50 (Cytochrome P450 2C19): 25700 nM
IC50 (Cytochrome P450 2C9): 17600 nM
IC50 (Cytochrome P450 2D6): 50000 nM
IC50 (Cytochrome P450 3A4 [12]): 50000 nM
IC50 (Cytochrome P450 3A4 [13]): 50000 nM
IC50 [14]: 20000 nM
solubility at 24 h [15]: 3520 µg/mL (≈ 5890 µM)
solubility at 24 h [16]: < 1 µg/mL
solubility at 24 h [17]: < 1 µg/mL
solubility at 24 h [18]: < 1 µg/mL
Activity [19]: Non-toxic
Activity [20]: Non-toxic
Activity [21]: Non-toxic
Activity [22]: Non-toxic
Activity [23]: Non-toxic
Activity [24]: Non-toxic
Activity [25]: Non-toxic
Activity [26]: Non-toxic
Activity [27]: Non-toxic
Activity [28]: Non-toxic
Activity [29]: Non-toxic
Activity [30]: Non-toxic
Activity [31]: Non-toxic
Activity [32]: Non-toxic
Activity [33]: Non-toxic
Activity [34]: Non-toxic
Activity [35]: Non-toxic

— ChEMBL document CHEMBL6078645, “Expanding the Solvent/Protein Region Occupation of the Non-Nucleoside Reverse Transcriptase Inhibitor Binding Pocket for Improved Broad-Spectrum Anti-HIV-1 Efficacy: from Rigid Phenyl-Diarylpyrimidines to Flexible Hydrophilic Piperidine-Diarylpyrimidines” (J Med Chem, 2024)
